Assay results as given in US8920788B2, “High-molecular weight conjugate of physiologically active substances” (priority 2008, dated 2014).
Counter-ions that a name gives are not always drawn.

Key:
[1] = tested on: Mouse colon cancer, Colon 26; assay: Antitumor activity, subcutaneously transplanted Colon 26 in mice; type: in vivo, female CDF1 mice; settings: dose 15 mg/kg, once into tail vein
Text: Mouse colon cancer, Colon 26, maintained by serial subcutaneous subculture in mice, was minced into about 2-mm cubic fragments, and the fragments were subcutaneously transplanted on the dorsal part of female CDF1 mice with a trocar. Eight days after the tumor transplantation, the high-molecular weight conjugate according to the present invention (Compound 2 and Compound 4) or a control drug (Comparative Compound 1 and doxorubicin hydrochloride) was each administered once into the mouse tail vein in a way such that each mouse received the same dose per body weight in terms of doxorubicin. Each compound was dissolved in a 5% liquid glucose for injection and used. After the administration, the major axis (L mm) and the minor axis (W mm) of the tumor were measured using a caliper, and the tumor volume was calculated by the formula (L×W^2)/2.

[2] = Lethal dose of the control drug; type: in vivo; settings: control drug of the antitumor test
Description: The lethal dose of doxorubicin used as the control drug was 30 mg/kg, and therefore doxorubicin was administered at a dose of 15 mg/kg to perform the antitumor test.

## COc1cccc2c1C(=O)c1c(O)c3c(c(O)c1C2=O)C[C@@](O)(C(=O)CO)C[C@@H]3O[C@H]1C[C@H](N)[C@H](O)[C@H](C)O1 [Doxorubicin, doxorubicin hydrochloride]
[1]; day 0 after administration
  relative tumor volume based on the tumor volume on the day of administration: 1.00
[1]; day 3 after administration
  relative tumor volume based on the tumor volume on the day of administration: 1.79
[1]; day 7 after administration
  relative tumor volume based on the tumor volume on the day of administration: 3.89
[1]; day 10 after administration
  relative tumor volume based on the tumor volume on the day of administration: 5.27
[1]; day 14 after administration
  relative tumor volume based on the tumor volume on the day of administration: 12.17
[2]
  lethal dose: 30 mg/kg
